Measurements from patent publication US20140286906A1, “USE OF IGF-1 IN THE MODULATION OF TREG CELL ACTIVITY AND THE TREATMENT AND PREVENTION OF AUTOIMMUNE DISORDERS OR DISEASES” (priority 2011, published 2014).

Tests used:
[1] = tested on: CD25 negative subset (conventional T cells); assay: in vitro expansion of FACS-sorted splenic CD4+CD25- cells; type: cell-based, murine; settings: TCR stimulation with anti-CD3 and anti-CD28 antibodies
From the text: Initially, and in order to characterize the in vitro effects of IGF-1 on the different populations of the […] immune system, murine splenic CD4 positive cells were sorted by FACS based on the expression of CD25. This allows for the separation and enrichment of conventional T cells (CD25 negative) and regulatory T cells (CD25 positive). […] To exclude the possibility that the observed expansion was due to the anti-apoptotic properties of IGF-1, the cells in culture were stained with AnnexinV (a marker of apoptosis) and a vital dye, and then analyzed by flow cytometry.

[2] = tested on: FOXP3 positive cells (CD25+ splenic cells); assay: Foxp3 and Ki67 flow cytometric analysis of Treg proliferation; type: cell-based, murine
Method: To determine the effect of IGF-1 in the regulatory subset in vitro (cf. FIG. 4) the number of FOXP3 positive cells is determined by flow cytometric analysis. To analyze other subsets, like the proinflammatory Th1 and Th17 subsets, a similar approach is used but the number of interferon-gamma (Th1) and IL-17 (Th17) positive cells is determined. Additionally, to evaluate the number of proliferating cells at a given moment cells are stained using the intracellular marker Ki67, which is expressed only in cycling cells. The combination of a specific lineage marker (e.g., Foxp3, IFN-g, IL-17) with Ki67 allows for the determination at a given moment of the cells belonging to a certain subset and their proliferative status.
In animal experiments, the population is isolated normally from murine spleen (but also could be isolated from other tissues, like for example but not restricted to bone marrow, adipose tissue, cord blood derived mononuclear cell, thymus, or peripheral blood) and is sorted using different markers (e.g., CD4 and CD25). This population is defined as CD4+CD25+ and includes the regulatory cells. This population is then treated in the above-mentioned medium in the presence of IGF-1. After several days of culture part of the cells are counted, fixed, permeabilized and analyzed by flow cytometry using an anti-FOXP3 antibody in combination with the same extracellular markers (CD4 and CD25). This allows for the determination of the absolute number of FOXP3 positive cells present in the culture.
To further define the proliferative effects of IGF-1, FACS-sorted CD25+ splenic cells (>98% purity) after two days in culture with recombinant IGF-1 were fixed, permeabilized and stained with antibodies against FOXP3 and Ki67. Foxp3 is a transcription factor that orchestrates the cellular and molecular programs involved in T regulatory function. Ki67 is a nuclear antigen present in proliferating cells. […] After three days of culture the number of FOXP3 positive cells was increased four-fold and the number of regulatory T cells proliferating approximately six-fold.

[3] = tested on: STZ induced diabetes; assay: streptozotocin (STZ) induced autoimmune diabetes, systemic rhIGF-1 delivery; type: in vivo, mice
From the text: Regarding the functional assay for diabetes a protocol that measures the clearance of a standardized glucose load from the body after intraperitoneal injection was used (intraperitoneal glucose tolerance test, see Heikkinen et al. (2007)).
Beta-cells sense glucose levels and release insulin to maintain physiologic glucose levels within a relatively narrow range. Destruction of beta-cells by the immune system is correlated with the inability to control glucose levels (measured by the glucose tolerance test). Another way to assess whether IGF-1 stimulates proliferation and/or recruitment of regulatory T cells to the damaged tissues is by determining the number of FOXP3 expressing cells per unit area in the affected tissues by immunohistochemistry.
Shortly, single cell suspensions are prepared from the […] and spinal cord. The resulting cells are stained with anti-CD4 antibodies and separated using fluorescent-activated cell sorting. RNA is then extracted and purified and serves as a template for a quantitative RT-PCR reaction with Taqman probes. Finally, the relative amount of each mRNA compared to a house-keeping gene (Hprt) is determined.
An accepted model of experimental autoimmune diabetes in mice is the induction of diabetes by multiple injections of a low dose of streptozotocin (STZ). STZ causes diabetes by direct beta cell cytotoxicity as well as by initiation of T cell-mediated autoimmune attack of β-cells (O'Brian et al., 1996). Using this model the inventors examined if systemic delivery of rhIGF-1 could prevent autoimmune diabetes in the early stages of the disease. […] The inventors therefore addressed the effects of IGF-1 […] and sixty-one days after the treatment was stopped.
First the inventors examined the ability of CsA to suppress IGF-1 activity in vitro. […] Then the inventors tested whether CsA treatment in vivo could also impair IGF-1 protective effect at early stages of the disease. A GTT was performed three weeks from the first STZ injection.

[4] = tested on: DSS-induced colitis; assay: DSS-induced colitis, systemic IGF-1 delivery; type: in vivo, mice
From the text: In this example the inventors examined the ability of IGF-1 to suppress inflammation in a mouse model for IBD (DSS-induced colitis, Wirtz et al, 2007). Mice ingested DSS for 7 days and developed an acute colitis. […] This difference in weight with respect to their respective control group was maintained during the duration of the IGF-1 treatment (FIG. 31).
Administration of DSS in several cycles results in chronic colitis (Wirtz et al., 2007). To also test if the protective effects of IGF-1 lasted beyond the IGF-1 treatment, mice were administered DSS for another cycle at day 37. […] To further confirm that the observed effects were a consequence of colonic inflammation the inventors performed a histochemical analysis of the colon (FIG. 33). DSS-treated mice presented enlargement of the muscle, mucosa and subepithelial layer and foci of infiltrating cell, the main mediators of inflammation. In contrast, DSS-colitis mice receiving IGF-1 during the initial phase of the treatment for a total of 28 days were protected and did no show this prolonged infiltration of leukocytes. Quantification of these histological parameters (FIG. 34) further confirmed the significant long-term protection in IGF-pretreated mice.

[5] = tested on: EAE; settings: i.v. 600 μg/day for six days (Liu et al. 1997); cited from earlier work
[6] = dose response curve, 2 days stimulation

Insulin-like growth factor-1 [IGF-1]
in vitro expansion of CD25 negative subset [1]: no reproducible effect | dose range at which FOXP3 positive cells respond [2, 6]: falls within physiological ranges | saturability of stimulated pathway/receptor [2, 6]: saturable | increase in number of FOXP3 positive cells ([2]; three days of culture): four-fold | increase in number of regulatory T cells proliferating ([2]; three days of culture): approximately six-fold | double positive FOXP3 Ki67 population ([2]; two days in culture): increase | number of FOXP3 positive cells ([2]; two days in culture): increase | ratio of CD4:Foxp3 positive cells in the spleen ([3]; IGF-1 treatment, P=0.004): decreased | Foxp3 mRNA in pancreatic CD4 positive cells ([3]; RT-PCR seven weeks after disease induction, beyond treatment): higher expression | cell mass and architecture of insulin-producing pancreatic islands (insulin staining) ([3]; day ninety-seven after first STZ injection): long-lasting protective effects | density of T regulatory cells in pancreas (Foxp3 staining) ([3]; day ninety-seven after first STZ injection, P=0.0159): higher density of T regulatory cells | glucose control in untreated (non-diabetic) mice ([3]; mice without STZ): no effect | glucose homeostasis (GTT AUC) after end of treatment ([3]; nice and sixty-one days after treatment was stopped, P37d=0.016, P89d=0.036): long-term improved glucose homeostasis | blood glucose in glucose tolerance test (GTT) ([3]; three weeks from first STZ injection, four weeks after pump implantation): lower glucose levels | histological signs of colitis, infiltration of leukocytes ([4]; IGF-1 for 28 days in initial phase, after re-challenge): protected | body weight loss ([4]; acute phase, DSS for 7 days): showed protection | thickness of the subepithelial layer of the colon ([4]; after re-challenge, versus DSS-only mice, P=0.0004): significant reduction | thickness of the mucosa of the colon ([4]; after re-challenge, versus DSS-only mice, P=0.0007): significant reduction | thickness of the muscle layer of the colon ([4]; after re-challenge, versus DSS-only mice, P=0.053): significant reduction | difference in weight with respect to control group ([4]; during the duration of the IGF-1 treatment): maintained | body weight loss after DSS re-challenge ([4]; second DSS cycle at day 37, no rhIGF-1 delivered in this period): complete protection | number of infiltrating T cells and macrophages [5]: reduction
